{"source": "patent US12186332B2", "about": "“Methods for overcoming WNT/beta-catenin anti-cancer resistance in leukemia stem cells” (STOWERS INSTITUTE FOR MEDICAL RESEARCH, priority 2019, dated 2025)", "key": {"[1]": {"system": "Akt-enhanced β-catenin activity (TOP-Luc)", "test": "HTS TOPFlash/FOPFlash luciferase reporter dose-response", "assay_type": "cell-based"}, "CD8^+ T cells": {"system": "CD8^+ T cells", "test": "FACS of peripheral blood CD8+ T cells in leukemic mice", "assay_type": "in vivo, mouse", "conditions": "48 hrs post-treatment"}, "[2]": {"system": "PD-L1, TIM-3 and CD24 on LSCs", "test": "FACS of immune checkpoints on LSCs", "assay_type": "in vivo, mouse", "conditions": "3 days post-treatment", "from_the_text": "Frequency in BM (top) and frequency of the indicated immune checkpoint within the LSC population (bottom) are shown."}, "[3]": {"system": "immune checkpoint (IC) and Wnt target gene loci", "test": "ATAC-seq chromatin accessibility in LSCs and blast cells", "assay_type": "in vivo, mouse", "conditions": "[Low]DXR", "from_the_text": "Inhibitory IC gene loci are highlighted (blue dots).\nCells were sorted from BM pooled from 20 leukemia mice treated with [Low]DXR and 8 leukemia mice treated with vehicle control at 15-30 k/replicate.\nFIG. 4M is metagene analysis of LSCs showing chromatin accessibility near the transcriptional start site (TSS) in immune-checkpoint gene loci (listed) compared with all loci showing significant changes. Gene synonyms are listed here in parentheses Hvem (Tnfrsf14), Gal-9 (Lgals9), Ox401 (Tnfsf4), Tnfsf7 (Cd70), B7-H2 (Icosl), B7-H3 (Cd276), B7-H4 (Vtcn1), Pd1 (Pdcd1), Tnfrsf7 (Cd27), Tim3 (Havcr2), Ox40 (Tnfrsf4).\nCells were sorted from BM pooled from 20 leukemia mice treated with [Low]DXR and 8 leukemia mice treated with vehicle control. Experiment was repeated 1 time with similar results.\nATAC-seq was performed in LSCs and blast cells following the protocol described in Buenrostro et al., ATAC-seq: A Method for Assaying Chromatin Accessibility Genome-Wide. Curr Protoc Mol Biol. 2015 Jan. 5,109:21.29.1-9, the entirety of which is incorporated herein by reference. Cells were sorted from BM pooled from 20 leukemia mice treated with [Low]DXR and 8 leukemia mice treated with vehicle control at 15-30 k/replicate.\nCollected cells were subject to transposition reaction and purification. In brief, 30,000 FACS-sorted blast cells were washed using 50 μl cold 1×PBS and centrifuged at 500 g for 5 min in a pre-chilled (4° C.) fixed-angle centrifuge. Cells were lysed using cold lysis buffer (10 mM Tris-HCl, pH 7.4, 10 mM NaCl, 3 mM MgCl2 and 0.1% IGEPAL CA-630). Following the lysis, the pellet was resuspended in the transposase reaction mix. The transposition reaction mix contains 25 μl TD (2× reaction buffer), 2.5 μl TDE1 (Nextera Tn5 Transposase) and 22.5 μl Nuclease Free H2O. Resuspended nuclei in the transposition reaction mix. Incubated the transposition reaction at 37° C. for 30 min. Immediately following transposition, purification was performed by using a Qiagen MinElute PCR Purification Kit. Eluted transposed DNA in 10 μl Elution Buffer (10 mM Tris buffer, pH 8). Transposed DNA fragments were amplified by PCR. The PCR mixture contains 10 μl transposed DNA, 10 μl Nuclease Free H2O, 2.5 μl 25 μM Custom Nextera PCR Primer 1, 2.5 μl 25 μM Custom Nextera PCR Primer 2 (Contains Barcode) and 25 μl NEBNext High-Fidelity 2×PCR Master Mix. The thermal cycle is as follows: 1 cycle of 72° C. for 5 min, 98° C. for 30 sec, 5 cycles of 98° C. for 10 sec, 63° C. for 30 sec, 72° C. for 1 min. To reduce GC and size bias in PCR, the appropriate number of PCR cycles is determined using qPCR. To run a qPCR side reaction, combine the following in qPCR compatible consumables: 5 μl of previously PCR amplified DNA, 4.41 μl Nuclease Free H2O, 0.25 μl 25 μM Customized Nextera PCR Primer 1, 0.25 μl 25 μM Customized Nextera PCR Primer 2, 0.09 μl 100×SYBR Green I, 5 μl NEBNext High-Fidelity 2×PCR Master Mix. Using a qPCR instrument, cycle as follows: 1 cycle of 98° C. for 30 sec, 20 cycles of 98° C. for 10 sec, 63° C. for 30 sec, 72° C. for 1 min. To calculate the additional number of cycles needed, plot linear Rn versus cycle and determine the cycle number that corresponds to […] fluorescent intensity. Run the remaining 45 μl PCR reaction to the cycle number determined by qPCR. Cycle as follows: 1 cycle of 98° C. for 30 sec, N cycles (determined using qPCR) of 98° C. for 10 sec, 63° C. for 30 sec, 72° C. for 1 min."}, "[4]": {"system": "LSCs and blast cells of leukemia mice", "test": "Immune-checkpoint blocker treatment / CD8+ T cell depletion in leukemia mice", "assay_type": "in vivo, mouse", "conditions": "[Low]DXR after anti-CD8 depletion", "method": "For immune-checkpoint blocker treatment, 250 μg anti-PD-1 or isotype control (BioXcell) was injected intravenously every other day for a total of 3 injections. For CD8^+ T cell depletion, 2×100 μg and 1×250 μg of anti-CD8a or isotype control (BioXcell) was injected intravenously every other day."}, "[5]": {"system": "functional, tumorigenic LSCs", "test": "Tumorigenic assay: BM of treated leukemic mice transplanted into NSG recipients", "assay_type": "in vivo, mouse", "conditions": "[Low]DXR alone; nearly 6 months post-transplant", "experimental": "At 12 days post-treatment, BM was harvested from treated mice and transplanted into sub-lethally irradiated NSG recipients. Treatment and transplantation schematic and Kaplan-Meier curves of recipient mice were shown. Red arrow indicates day 0 in survival curve.\nThe free [Low]DXR treatment group (solid line) from FIG. 5F is shown for comparison (n=30 per group).\nTumorigenic assays were performed by transplanting 0.5, 1.5, or 4.5×10^4 bone marrow cells from treated mice at 12 days post-treatment into 3.25 Gy irradiated NSG recipient mice. 10 recipients were used for each dose from each group. One male and one female donor was used for each group. Leukemia was assessed in mice euthanized due to poor health by analyzing CD45^HiCD^3+ cell frequency. Mice having >20% Blasts in the bone marrow were considered leukemic. NSG and Ptprc mice were originally obtained from The Jackson Laboratory."}, "HEK-TOP cell lines": {"system": "HEK-TOP cell lines", "test": "Cell Titer Glo cytotoxicity profile (CTG)", "conditions": "concentration range as worded in the sentence", "experimental": "Activity of compounds was tested against HEK-TOP cells vs. HEK FOP cells for inhibition of luciferase activity. The cytotoxicity profiles of the compounds were also tested using Cell Titer Glo assay (Promega) on HEK-TOP cell lines."}}}
{"smiles": "COc1cccc2c1C(=O)c1c(O)c3c(c(O)c1C2=O)C[C@@](O)(C(=O)CO)C[C@@H]3O[C@H]1C[C@H](N)[C@H](O)[C@H](C)O1", "note": "[DXR, doxorubicin]", "values": [{"measurement": "concentration at which Akt-enhanced β-catenin activity (TOP-Luc) is specifically inhibited (compare to FOP-Luc control)", "setting": "[1]; HEK-293 TOPFlash vs FOPFlash Akt^Act βcat^Act cells", "result": "lower than 1 μM"}, {"measurement": "specificity (FOP-Luc) at higher concentrations", "setting": "[1]; higher concentrations (above 1 μM)", "result": "reduced specificity"}, {"measurement": "CD8+ T cells in peripheral blood", "setting": "CD8^+ T cells; [Low]DXR", "result": "significant increase"}, {"measurement": "CD8+ T cells in peripheral blood", "setting": "CD8^+ T cells; clinical-dose DXR", "result": "significant reduction"}, {"measurement": "LSC populations expressing PD-L1 and CD24", "setting": "[2]; [Low]DXR", "result": "reduced"}, {"measurement": "TIM-3+ LSCs", "setting": "[2]; [Low]DXR", "result": "reduced"}, {"measurement": "LSC populations expressing PD-L1 and CD24", "setting": "[2]; clinical-dose DXR", "result": "this reduction was reversed"}, {"measurement": "TIM-3+ LSCs", "setting": "[2]; clinical-dose DXR", "result": "increased substantially"}, {"measurement": "IC loci with increased accessibility", "setting": "[3]; LSCs", "result": 3, "unit": "loci"}, {"measurement": "IC loci with reduced accessibility", "setting": "[3]; LSCs", "result": 13, "unit": "loci"}, {"measurement": "IC loci with increased accessibility", "setting": "[3]; blast cells", "result": 10}, {"measurement": "IC loci with reduced accessibility", "setting": "[3]; blast cells", "result": 4}, {"measurement": "accessibility in the promoter regions of Wnt target genes in LSCs", "setting": "[3]; not in blast cells", "result": "reduced"}, {"measurement": "effect on LSCs after CD8+ T cell depletion", "setting": "[4]", "result": "no longer significantly reduced LSCs"}, {"measurement": "recipients that remained healthy", "setting": "[5]", "result": "27/30"}, {"measurement": "toxicity (CTG)", "setting": "HEK-TOP cell lines", "result": "increased toxicity"}]}
